PubChem BioAssay AID1648 (Sanford-Burnham Center for Chemical Genomics, 2009)
The source made the active and inactive calls. The rule behind the calls is not given here.

target: Serine/threonine-protein kinase mTOR (Homo sapiens) (UniProt P42345); test: binders of mTOR FRB domain, biophysical, NMR (AID 1648); settings: NMR binding to FRB domain, chemical shift
Sequence (P42345 2015-2114): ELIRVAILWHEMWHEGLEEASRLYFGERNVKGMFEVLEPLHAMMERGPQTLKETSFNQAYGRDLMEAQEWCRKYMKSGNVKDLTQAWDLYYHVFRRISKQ

Row | Compound | Kd
1 | Cc1c(C(=O)Nn2cnnc2)oc2ccccc12 | > 4 mM (inactive)
2 | OCc1cc(-c2cccs2)on1 | > 4 mM (inactive)
3 | COc1cccc(Oc2ccc(N)cc2)c1 | > 4 mM (inactive)
4 | CC(C)c1ccc(NC(=O)C(N)=O)cc1 | > 4 mM (inactive)
5 | Cc1cc(O)c2c(c1)C(=O)c1cccc(O)c1C2=O | > 4 mM (inactive)
6 | COc1cccc(OC)c1C(=O)N1CCOCC1 | > 4 mM (inactive)
7 | O=C1O[C@H](C(O)CO)C(O)=C1O (some centres undefined) | > 4 mM (inactive)
8 | CC1(C)C2CC[C@]3(C)C(C(=O)C=C4[C@H]5C[C@@](C)(C(=O)O)CC[C@]5(C)CC[C@]43C)[C@@]2(C)CC[C@@H]1O (some centres undefined) | > 4 mM (inactive)
9 | O=C(O)CSc1nnc(-c2cccs2)o1 | > 4 mM (inactive)
10 | Cc1cc(F)c(F)c(C(=O)NC2CC2)c1Cl | > 4 mM (inactive)
11 | Cc1cc(O)cc(O)c1C(=O)O | > 4 mM (inactive)
12 | Cc1nc2ccc(NC(=O)N3CCOCC3)cc2s1 | > 4 mM (inactive)
13 | CC(=O)Nc1cccc(-c2n[nH]c(=S)n2C)c1 | > 4 mM (inactive)
14 | COc1ccccc1-c1c(C)nn2c(C)c(C(C)=O)cnc12 | > 4 mM (inactive)
15 | O=C1CS/C(=N/N=C2CCCC2)N1 | > 4 mM (inactive)
16 | O=C(O)CCC(=O)c1cccc2ccccc12 | > 4 mM (inactive)
17 | Cc1ccccc1NC(=O)N1CCOCC1 | > 4 mM (inactive)
18 | O=C1CS/C(=N/N=C/c2cccs2)N1 | > 4 mM (inactive)
19 | N#Cc1c[nH]n2c(=O)cc(Cc3ccccc3)nc12 | > 4 mM (inactive)
20 | CC1CN(C2=NCCN2)CC(C)O1 (centres undefined) | > 4 mM (inactive)
21 | COC(=O)C1[C@H]2C[C@H]3c4[nH]c5ccccc5c4CCN3C[C@@H]2CC[C@@H]1O (some centres undefined) | > 4 mM (inactive)
22 | O=C(NCc1n[nH]c(=O)c2ccccc12)C1CC1 | > 4 mM (inactive)
23 | NC(=O)c1ccsc1NC(=O)c1cccnc1 | > 4 mM (inactive)
24 | CC1=CC(=O)NC2C=CC=CC12 (centres undefined) | > 4 mM (inactive)

Row | Compound | Kd
25 | CSc1ccc(C2NC(=O)CCC2[N+](=O)[O-])cc1 (centres undefined) | > 4 mM (inactive)
26 | CC(=O)Nc1ccc(C(=O)n2nc(C)cc2C)cc1 | > 4 mM (inactive)
27 | CN(c1ccccc1C(=O)N1CCOCC1)S(C)(=O)=O | > 4 mM (inactive)
28 | COc1ccc(N2C(=O)CCC2=O)c(OC)c1 | > 4 mM (inactive)
29 | OCc1ccccc1O[C@@H]1O[C@H](CO)[C@@H](O)[C@H](O)[C@H]1O | > 4 mM (inactive)
30 | O=C(O)C1CCN(c2ccc(C(F)(F)F)cn2)CC1 | > 4 mM (inactive)
31 | CC(=O)N1CCN(S(=O)(=O)c2ccccc2)CC1 | > 4 mM (inactive)
32 | CCN1C(=O)c2cccc3c(S(N)(=O)=O)ccc1c23 | > 4 mM (inactive)
33 | Nc1ccc2nccnc2c1 | > 4 mM (inactive)
34 | CCOc1ccc(C(=O)c2ccncc2)cc1 | > 4 mM (inactive)
35 | CC(C)CC(=O)Nc1c[nH]c(=O)[nH]c1=O | > 4 mM (inactive)
36 | O=c1cc(O)n(-c2ccc(F)cc2)c(=S)[nH]1 | > 4 mM (inactive)
37 | NCc1ccc(S(N)(=O)=O)cc1 | > 4 mM (inactive)
38 | Cc1nnc(SCc2cccs2)[nH]c1=O | > 4 mM (inactive)
39 | COc1cc2c(cc1O)[C@@H](Cc1ccc(O)cc1)[N+](C)(C)CC2 | > 4 mM (inactive)
40 | CC(=O)c1cccc(NC2=NCC(C)(C)S2)c1 | > 4 mM (inactive)
41 | COc1ccc(C2NC(C(=O)O)CS2)cc1 (centres undefined) | > 4 mM (inactive)
42 | CCSc1nnc2[nH]c(=O)cc(C)n12 | > 4 mM (inactive)
43 | COC(=O)c1cncc(C(=O)OC)c1 | > 4 mM (inactive)
44 | O=C(COc1ccccc1)N1CCc2ccccc2C1 | > 4 mM (inactive)
45 | COc1cc(OC)c(-c2nc3cnccc3n2C)cc1OC | > 4 mM (inactive)
46 | CCN1CCC2(CC1)CC1CC3C=CC1(CN2C(C)=O)O3 (centres undefined) | > 4 mM (inactive)
47 | CC(=O)Nc1ccc(Oc2nc(C)cc(C)n2)cc1 | > 4 mM (inactive)
48 | C=C[C@@]1(C)CC(=O)[C@@]2(O)[C@](C)(O1)[C@@H](OC(C)=O)[C@@H](O)C1C(C)(C)CC[C@H](O)[C@@]12C (some centres undefined) | > 4 mM (inactive)

Row | Compound | Kd
49 | CC(=O)O[C@H]1C[C@@H](OC(C)=O)C(C)(C)C2C[C@@H](O)[C@]3(C)C(CC[C@@]4(C)[C@H](c5ccoc5)OC(=O)[C@H]5O[C@]543)[C@]21C (some centres undefined) | > 4 mM (inactive)
50 | c1ccc2[nH]c(NCCN3CCOCC3)nc2c1 | > 4 mM (inactive)
51 | C[C@@H]1[C@H]2[C@H](O[C@@H]3O[C@H](CO)[C@@H](O)[C@H](O)[C@H]3O)OC=C(C(=O)O)[C@H]2C[C@@H]1O | > 4 mM (inactive)
52 | O=C(O)C1CC2CC1CCC2O (centres undefined) | > 4 mM (inactive)
53 | c1cncc(C2CCCCN2)c1 (centres undefined) | > 4 mM (inactive)
54 | c1coc(-c2nc(-c3ccncc3)no2)c1 | > 4 mM (inactive)
55 | O=C1CSC(=Nc2cccc(C(=O)O)c2)N1 | > 4 mM (inactive)
56 | O=C(O)c1cc(O)c2c(c1)C(=O)c1cc(O)cc(O)c1C2=O | > 4 mM (inactive)
57 | O=C(Nc1ccon1)c1ccc(Br)o1 | > 4 mM (inactive)
58 | O=c1c2ccccc2nc2n1CCCCN2 | > 4 mM (inactive)
59 | NC1=NC(=O)C(CC(=O)Nc2ccccc2F)S1 (centres undefined) | > 4 mM (inactive)
60 | Nc1nc(SCc2ccc3c(c2)OCCO3)n[nH]1 | > 4 mM (inactive)
61 | Cc1cc2ncn(S(=O)(=O)N3CCOCC3)c2cc1C | > 4 mM (inactive)
62 | NC(=O)c1cccc2c1OCCO2 | > 4 mM (inactive)
63 | NC(=O)Cc1nc2ccccc2[nH]1 | > 4 mM (inactive)
64 | Cc1cc(C)c(C#N)c(N2CCCC2)n1 | > 4 mM (inactive)
65 | O=C(CSc1ncccn1)NCc1ccco1 | > 4 mM (inactive)
66 | O=C(Nn1cnnc1)c1ccccc1-c1ccccc1 | > 4 mM (inactive)
67 | CC1(C)C(=O)N(O)C(C)(C)C(=O)N1O | > 4 mM (inactive)
68 | Cc1noc(C)c1C(=O)Nc1ccc2c(c1)CCC2 | > 4 mM (inactive)
69 | O=C(NCc1ccncc1)c1cccc(F)c1 | > 4 mM (inactive)
70 | CC(=O)Nc1ccc2c(C)cc(=O)[nH]c2c1 | > 4 mM (inactive)
71 | O=C(O)CCSc1nc2ccccc2s1 | > 4 mM (inactive)
72 | Nc1ccc2c(c1)OCO2 | > 4 mM (inactive)

Row | Compound | Kd
73 | Cc1c(C)[n+](=O)c(-c2cccs2)c(C)n1[O-] | > 4 mM (inactive)
74 | NC(=O)C1CCN(C(=S)Nc2ccccc2)CC1 | > 4 mM (inactive)
75 | CC1CCN(C(=O)c2ccc(NS(C)(=O)=O)cc2)CC1 | > 4 mM (inactive)
76 | CS(C)=C1C(=O)NC(=O)N(Cc2ccc(F)cc2)C1=O | > 4 mM (inactive)
77 | CC1=CC(=O)CC(C)(C)C1(O)/C=C/C(C)=C\C(=O)O (centres undefined) | > 4 mM (inactive)
78 | COc1cc2c3cc1Oc1c(OC)c(OC)cc4c1[C@@H](Cc1cccc(c1)Oc1ccc(c(O)c1)C[C@@H]3N(C)CC2)N(C)CC4 | > 4 mM (inactive)
79 | O=C1CNC(=O)N1Cc1ccc(F)cc1 | > 4 mM (inactive)
80 | COc1c(-c2ccccc2)oc2c(OC)cccc2c1=O | > 4 mM (inactive)
81 | O=C(O)c1csc(-c2cccnc2)n1 | > 4 mM (inactive)
82 | Nc1ncnc2c1ncn2[C@@H]1O[C@H](CO)[C@@H](O)[C@H]1O | > 4 mM (inactive)
83 | O=C1C=CC(=O)c2c(O)cccc21 | > 4 mM (inactive)
84 | CC(=O)NC1=C(N(C)C)C(=O)c2ccccc2C1=O | > 4 mM (inactive)
85 | O=C(c1ccc(F)cc1)N1CCOCC1 | > 4 mM (inactive)
86 | Cc1ccc(-c2cc(C(=O)N3CCCC3)no2)cc1 | > 4 mM (inactive)
87 | O=C(Nc1ccc2c(c1)OCCO2)c1c(F)cccc1F | > 4 mM (inactive)
88 | Cc1csc(CCc2nc(C)cs2)n1 | > 4 mM (inactive)
89 | O=C1CSC(c2ccc3c(c2)OCO3)N1 (centres undefined) | > 4 mM (inactive)
90 | CC(NC(=O)C1CCCCC1)C(=O)NC1=NCCS1 (centres undefined) | > 4 mM (inactive)
91 | O=C(Nc1nncs1)Oc1ccccc1 | > 4 mM (inactive)
92 | Cc1ncoc1C(=O)Nc1ncc([N+](=O)[O-])s1 | > 4 mM (inactive)
93 | NC(=O)c1ccc(NC(=O)c2ccco2)cc1 | > 4 mM (inactive)
94 | COc1cc(OC)c2c(OC)c(-c3ccc4c(c3)OCO4)c(=O)oc2c1 | > 4 mM (inactive)
95 | O[C@H]1C=C2CCN3Cc4cc5c(cc4C(C23)[C@@H]1O)OCO5 (some centres undefined) | > 4 mM (inactive)
96 | CC(=O)c1ccc(N2C(=O)C(C(C)C)NC2=S)cc1 (centres undefined) | > 4 mM (inactive)

Row | Compound | Kd
97 | O=C(O)CC(O)c1nc2ccccc2[nH]1 (centres undefined) | > 4 mM (inactive)
98 | O=C(O)c1ccc2ccccc2n1 | > 4 mM (inactive)
99 | NCc1ccc(-c2cccs2)cc1 | > 4 mM (inactive)
100 | O=C1c2ccccc2C(=O)N1/N=C/c1ccc[nH]1 | > 4 mM (inactive)
101 | CN=C1SC(CC(=O)Nc2ccc(O)cc2)C(=O)N1C (centres undefined) | > 4 mM (inactive)
102 | Cc1nn(C)c(C)c1C(=O)O | > 4 mM (inactive)
103 | CNS(=O)(=O)c1cc(OC)ccc1OC | > 4 mM (inactive)
104 | Cc1nc2ccc(C(=O)O)cc2[nH]1 | > 4 mM (inactive)
105 | Cc1ccc(SCCN2C(=O)NC(C)(C)C2=O)cc1 | > 4 mM (inactive)
106 | Cn1c(NCC(=O)O)nc2c1c(=O)[nH]c(=O)n2C | > 4 mM (inactive)
107 | O=C(O)c1cccc2nsnc12 | > 4 mM (inactive)
108 | Cc1cc(NC(=O)c2c(F)c(F)c(F)c(F)c2F)no1 | > 4 mM (inactive)
109 | O=C1CCCCCN1CO | > 4 mM (inactive)
110 | CC1CN(C(=O)c2ccncc2)CC(C)O1 (centres undefined) | > 4 mM (inactive)
111 | CC(C)CC(=O)NC1CCSC1=O (centres undefined) | > 4 mM (inactive)
112 | Cc1nc2nc(-c3ccco3)nn2c(C)c1Cl | > 4 mM (inactive)
113 | CCC(C)C(NC)C(=O)O (centres undefined) | > 4 mM (inactive)
114 | O=c1[nH]c2sc3c(c2c2ncnn12)CCCC3 | > 4 mM (inactive)
115 | COc1ccc2c3c1O[C@H]1C[C@@H](O)C=C[C@@]31CCN(C)C2 | > 4 mM (inactive)
116 | COc1cc(OC)cc(-c2nc(N)n[nH]2)c1 | > 4 mM (inactive)
117 | CC(=O)c1cnc(Nc2nc(C)c3ccccc3n2)nc1C | > 4 mM (inactive)
118 | CN1C(=O)c2ccc(C(=O)NCc3ccccc3)cc2C1=O | > 4 mM (inactive)
119 | O=S1(=O)CCC(NC(=S)N2CCOCC2)C1 (centres undefined) | > 4 mM (inactive)
